Measured values from patent publication US20230331803A1, “CO-AGONISTS OF THE GLP-1 AND AMYLIN RECEPTORS” (priority 2020, published 2023).
Where two headings read alike, the source gives them in different places. Starred links: 1 amine or outer side, 2 acyl side, 3 side chain; linkers in the order of their positions; H or OH if unused. Non-standard residues stand in square brackets, D forms with d. Groups on a side chain read outwards from the residue. *: point of attachment. Butyryl(4-SO2NHCO(CH2)16Tz) = O=C(CCCCCCCCCCCCCCCCc1nnn[nH]1)NS(=O)(=O)CCCC(=O)*; Decanoyl(10-(4-HOOC-PhO)) = O=C(O)c1ccc(OCCCCCCCCCC(=O)*)cc1; C20 diacid = O=C(O)CCCCCCCCCCCCCCCCCCC(=O)*; C18 diacid = O=C(O)CCCCCCCCCCCCCCCCC(=O)*; C16 diacid = O=C(O)CCCCCCCCCCCCCCC(=O)*; γGlu = O=C(O)[C@H](CCC(=O)[*:2])N[*:1]; εLys = N[C@@H](CCCCN[*:1])C(=O)[*:2]; Trx = NC[C@H]1CC[C@H](C(=O)O)CC1; AEEA = NCCOCCOCC(=O)O; Aib = CC(C)(N)C(=O)O; Ahx = NCCCCCC(=O)O

Experiments:
human GLP-1 receptor = target: T1, human GLP-1 receptor (Homo sapiens, UniProt P43220); assay: Human GLP-1 receptor in vitro potency assay (CRE-luciferase reporter, BHK cells); type: cell-based
T1 construct: expressed in transfected cells; host or cells: BHK (Baby Hamster Kidney) cells, clone BHK 467-12A KZ-10, stably transfected, with CRE-luciferase reporter
T1 sequence (P43220 24-463): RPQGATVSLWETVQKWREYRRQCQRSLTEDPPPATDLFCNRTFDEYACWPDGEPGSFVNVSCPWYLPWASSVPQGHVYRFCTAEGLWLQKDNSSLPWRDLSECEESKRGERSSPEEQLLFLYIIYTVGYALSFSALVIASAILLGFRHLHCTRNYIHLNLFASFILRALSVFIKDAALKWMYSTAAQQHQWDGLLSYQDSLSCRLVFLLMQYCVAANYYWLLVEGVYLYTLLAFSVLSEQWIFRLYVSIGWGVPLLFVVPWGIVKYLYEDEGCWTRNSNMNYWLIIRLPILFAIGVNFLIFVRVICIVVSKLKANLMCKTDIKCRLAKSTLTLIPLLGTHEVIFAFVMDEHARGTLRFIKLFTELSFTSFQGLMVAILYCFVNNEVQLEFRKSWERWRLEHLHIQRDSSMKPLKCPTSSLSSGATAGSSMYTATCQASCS
Experimental: It is thus possible to measure GLP-1 receptor activity using a CRE-luciferase reporter gene introduced into Baby Hamster Kidney (BHK) cells co-expressing the GLP-1 receptor.
Cells were aliquoted and stored at -180° C. until use.
Plates were sealed and incubated at room temperature with gentle shaking for 30 minutes while protected from light. Luminescence was detected on a luminescence plate reader e.g. a Synergy 2 (BioTek).

[1] = target: T2, human amylin receptor (hAmyR3) (Homo sapiens, UniProt O60896+P30988); assay: Human amylin receptor in vitro potency assay (CRE-luciferase reporter, BHK cells); type: cell-based;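 further: BHK cells expressing human calcitonin receptor plus RAMP3 (amylin-3 receptor) with a CRE-luciferase reporter, agonist activity read as luminescence from cAMP-driven transcription, 7-point serial dilutions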
T2 construct: host or cells: BHK cells (Hollex-1 line: human calcitonin receptor (a) + CRE-Luc), further transfected with human RAMP3
T2 sequence (P30988 25-474): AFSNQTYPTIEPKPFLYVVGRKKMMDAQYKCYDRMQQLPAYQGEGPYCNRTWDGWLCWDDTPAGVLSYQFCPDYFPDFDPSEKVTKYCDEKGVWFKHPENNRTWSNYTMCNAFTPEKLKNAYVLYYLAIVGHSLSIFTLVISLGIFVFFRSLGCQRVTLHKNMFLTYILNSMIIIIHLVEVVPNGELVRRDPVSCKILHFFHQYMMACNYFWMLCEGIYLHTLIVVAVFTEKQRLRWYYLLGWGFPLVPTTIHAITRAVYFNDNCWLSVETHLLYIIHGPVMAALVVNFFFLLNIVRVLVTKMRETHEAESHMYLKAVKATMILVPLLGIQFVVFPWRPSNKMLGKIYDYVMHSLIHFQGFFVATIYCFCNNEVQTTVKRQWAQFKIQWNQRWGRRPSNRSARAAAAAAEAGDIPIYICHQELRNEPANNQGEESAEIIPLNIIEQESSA
T2 sequence (O60896 24-148): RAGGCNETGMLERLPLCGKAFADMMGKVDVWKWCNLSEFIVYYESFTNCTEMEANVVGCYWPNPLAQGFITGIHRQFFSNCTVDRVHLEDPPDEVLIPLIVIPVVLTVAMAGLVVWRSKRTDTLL

[2] = Table 4a, BHK cells expressing human GLP-1R, CRE-Luc, 3 hours, read-out: Human GLP-1R potency [EC50 (pM)]
[3] = Table 4a, BHK hAmyR3/CRE-Luc cells, 3 hours, read-out: Human AmyR3 potency [EC50 (pM)]

Compound | EC50 (human GLP-1 receptor; [2]) | EC50 [1, 3] | EC50 (human GLP-1 receptor) | EC50 [1]
HGEGTFTSDVSSYLEEQAARK([AEEA-AEEA-γGlu-Decanoyl(10-(4-HOOC-PhO))])FIEWLVRGK([AEEA-AEEA-γGlu-Decanoyl(10-(4-HOOC-PhO))])GEGGGGGEASELSTAALGRLSAELHELATLPRTETGSGSP-NH2 [Compound 0097] |  |  | 10 pM | 93.1 pM
H-H[Aib]EGTFTSDVSSYLEEQAAREFIEWLVRGK(Butyryl(4-SO2NHCO(CH2)16Tz))ASELSTAALGRLSAELHELATLPRTETGSGSP-NH2 [Compound 0147] | 36.8 pM | 33.7 pM |  | 
H-H[Aib]EGTFTSDVSSYLEEQAAREFIAWLVRGRK([Ahx-Ahx-γGlu-C18 diacid])GGGGEASELSTAALGRLSAELHELATLPRTETGSGSP-NH2 [Compound 0658] | 3.1 pM | 11 pM |  | 
H-H[Aib]EGTFTSDVSSYLEEQAAREFIEWLVRGRK([εLys-AEEA-AEEA-γGlu-Trx-C20 diacid])EASELSTAALGRLSAELHELATLPRTETGSGSP-NH2 [Compound 0438] | 11.8 pM | 27.5 pM |  | 
H-H[Aib]EGTFTSDVSSYLEEK([AEEA-AEEA-γGlu-C16 diacid])AAREFIAWLVRGRGGGGGASELSTAALGRLSK([AEEA-AEEA-γGlu-C16 diacid])ELHELATLPRTETGSGSP-NH2 [Compound 0295] | 4.8 pM | 32.7 pM |  | 
H-H[Aib]EGTFTSDVSSYLEEQAARK(Butyryl(4-SO2NHCO(CH2)16Tz))FIAWLVRGRGEASELSTAALGRLSAELHELATLPRTETGSGSP-NH2 [Compound 0125] | 8 pM | 12.2 pM |  | 
CC[C@H](C)[C@H](NC(=O)[C@H](Cc1ccccc1)NC(=O)[C@H](CCC(=O)O)NC(=O)[C@H](CCCCNC(=O)COCCOCCNC(=O)COCCOCCNC(=O)CC[C@H](NC(=O)CCCCCCCCCCCCCCCCC(=O)O)C(=O)O)NC(=O)[C@H](C)NC(=O)[C@H](C)NC(=O)[C@H](CCC(N)=O)NC(=O)CNC(=O)[C@H](CCC(=O)O)NC(=O)[C@H](CC(C)C)NC(=O)[C@H](Cc1ccc(O)cc1)NC(=O)[C@H](CO)NC(=O)[C@H](CO)NC(=O)[C@@H](NC(=O)[C@H](CC(=O)O)NC(=O)[C@H](CO)NC(=O)[C@@H](NC(=O)[C@H](Cc1ccccc1)NC(=O)[C@@H](NC(=O)CNC(=O)[C@H](CCC(=O)O)NC(=O)C(C)(C)NC(=O)[C@@H](N)Cc1c[nH]cn1)[C@@H](C)O)[C@@H](C)O)C(C)C)C(=O)N[C@@H](C)C(=O)N[C@@H](Cc1c[nH]c2ccccc12)C(=O)N[C@@H](CC(C)C)C(=O)N[C@H](C(=O)N[C@@H](CCCNC(=N)N)C(=O)NCC(=O)N[C@@H](CCCNC(=N)N)C(=O)NCC(=O)NCC(=O)N[C@@H](CCC(N)=O)C(=O)N[C@@H](CCC(=O)O)C(=O)N1CCC[C@H]1C(=O)NCC(=O)N[C@@H](CCC(N)=O)C(=O)N[C@@H](CCC(=O)O)C(=O)N1CCC[C@H]1C(=O)N[C@@H](CCCCNC(=O)COCCOCCNC(=O)COCCOCCNC(=O)CC[C@H](NC(=O)CCCCCCCCCCCCCCCCC(=O)O)C(=O)O)C(=O)N[C@@H](CCC(=O)O)C(=O)N[C@@H](C)C(=O)N[C@@H](CO)C(=O)N[C@@H](CCC(=O)O)C(=O)N[C@@H](CC(C)C)C(=O)N[C@@H](CO)C(=O)N[C@H](C(=O)N[C@@H](C)C(=O)N[C@@H](C)C(=O)N[C@@H](CC(C)C)C(=O)NCC(=O)N[C@@H](CCCNC(=N)N)C(=O)N[C@@H](CC(C)C)C(=O)N[C@@H](CO)C(=O)N[C@@H](C)C(=O)N[C@@H](CCC(=O)O)C(=O)N[C@@H](CC(C)C)C(=O)N[C@@H](Cc1c[nH]cn1)C(=O)N[C@@H](CCC(=O)O)C(=O)N[C@@H](CC(C)C)C(=O)N[C@@H](C)C(=O)N[C@H](C(=O)N[C@@H](CC(C)C)C(=O)N1CCC[C@H]1C(=O)N[C@@H](CCCNC(=N)N)C(=O)N[C@H](C(=O)N[C@@H](CCC(=O)O)C(=O)N[C@H](C(=O)NCC(=O)N[C@@H](CO)C(=O)NCC(=O)N[C@@H](CO)C(=O)N1CCC[C@H]1C(N)=O)[C@@H](C)O)[C@@H](C)O)[C@@H](C)O)[C@@H](C)O)C(C)C [Compound 0071] |  |  | 69.4 pM | 159 pM

Now from value to compound, other results behind:

EC50 (human GLP-1 receptor; [2]) | EC50 [1, 3] | Compound | EC50 (human GLP-1 receptor) | EC50 [1]
84.5 pM | 43.9 pM | CC[C@H](C)[C@H](NC(=O)[C@H](Cc1ccccc1)NC(=O)[C@H](CCC(=O)O)NC(=O)[C@H](CCCCNC(=O)COCCOCCNC(=O)COCCOCCNC(=O)CC[C@H](NC(=O)CCCCCCCCCCCCCCC(=O)O)C(=O)O)NC(=O)[C@H](C)NC(=O)[C@H](C)NC(=O)[C@H](CCC(N)=O)NC(=O)CNC(=O)[C@H](CCC(=O)O)NC(=O)[C@H](CC(C)C)NC(=O)[C@H](Cc1ccc(O)cc1)NC(=O)[C@H](CO)NC(=O)[C@H](CO)NC(=O)[C@@H](NC(=O)[C@H](CC(=O)O)NC(=O)[C@H](CO)NC(=O)[C@@H](NC(=O)[C@H](Cc1ccccc1)NC(=O)[C@@H](NC(=O)CNC(=O)[C@H](CCC(=O)O)NC(=O)C(C)(C)NC(=O)[C@@H](N)Cc1c[nH]cn1)[C@@H](C)O)[C@@H](C)O)C(C)C)C(=O)N[C@@H](C)C(=O)N[C@@H](Cc1c[nH]c2ccccc12)C(=O)N[C@@H](CC(C)C)C(=O)N[C@H](C(=O)N[C@@H](CCCNC(=N)N)C(=O)NCC(=O)N[C@@H](CCCCNC(=O)COCCOCCNC(=O)COCCOCCNC(=O)CC[C@H](NC(=O)CCCCCCCCCCCCCCC(=O)O)C(=O)O)C(=O)NCC(=O)NCC(=O)NCC(=O)N[C@@H](CCC(=O)O)C(=O)N[C@@H](C)C(=O)N[C@@H](CO)C(=O)N[C@@H](CCC(=O)O)C(=O)N[C@@H](CC(C)C)C(=O)N[C@@H](CO)C(=O)N[C@H](C(=O)N[C@@H](C)C(=O)N[C@@H](C)C(=O)N[C@@H](CC(C)C)C(=O)NCC(=O)N[C@@H](CCCNC(=N)N)C(=O)N[C@@H](CC(C)C)C(=O)N[C@@H](CO)C(=O)N[C@@H](C)C(=O)N[C@@H](CCC(=O)O)C(=O)N[C@@H](CC(C)C)C(=O)N[C@@H](Cc1c[nH]cn1)C(=O)N[C@@H](CCC(=O)O)C(=O)N[C@@H](CC(C)C)C(=O)N[C@@H](C)C(=O)N[C@H](C(=O)N[C@@H](CC(C)C)C(=O)N1CCC[C@H]1C(=O)N[C@@H](CCCNC(=N)N)C(=O)N[C@H](C(=O)N[C@@H](CCC(=O)O)C(=O)N[C@H](C(=O)NCC(=O)N[C@@H](CO)C(=O)NCC(=O)N[C@@H](CO)C(=O)N1CCC[C@H]1C(N)=O)[C@@H](C)O)[C@@H](C)O)[C@@H](C)O)[C@@H](C)O)C(C)C [Compound 0075] |  | 
7.9 pM | 49.5 pM | H-H[Aib]EGTFTSDVSSYLEGQAAREFIAWLVRGK([AEEA-AEEA-γGlu-C18 diacid])GEGEGEEASELSTAALGRLSAELHELATLPRTETGSGSP-NH2 [Compound 0009] |  | 
13.7 pM | 26.5 pM | H-H[Aib]EGTFTSDVSSYLEGQAAK([AEEA-AEEA-γGlu-C18 diacid])EFIAWLVRGRGGQEPGQEPEASELSTAALGRLSAELHELATLPRTETGSGSP-NH2 [Compound 0019] |  | 
1.5 pM | 4.6 pM | H-H[Aib]EGTFTSDVSSYLEEQAARK([AEEA-AEEA-γGlu-C18 diacid])FIAWLVRGRGGGGGEASELSTAALGRLSAELHELATLPRTETGSGSP-NH2 [Compound 0639] |  | 
